From PubChem BioAssay AID720607 (Broad Institute, 2013) come the findings set out here.

Each structure is given as a SMILES string. Results filed as inconclusive are left out.

The AC50 is the concentration at which the activity in the assay is half-maximal. A low value points to activity at low concentration.

The subject of the assay is CCRF-CEM viability, CellTiter-Glo ATP luminescence, 8-48 h. Description: CCRF-CEM leukemia cell viability loss, dose response, HRAS target identification, CellTiter-Glo ATP luminescence, 8/24/48 h, dry powder (AID 720607). In general terms: ATP-based viability assays read luminescence as a measure of living cells.

In the case of `COC(=O)c1ccc([C@@H]2c3[nH]c4ccccc4c3C[C@@H](C(=O)OC)N2C(=O)CCl)cc1`, the AC50 reads like this: (measured here: 8 h treatment) 272 nM; (measured here: 24 h treatment) 19.9 nM; (measured here: 48 h treatment) 23.4 nM.

As to `Cc1onc(C(=O)N2CCN(C(c3ccc(Cl)cc3)c3ccc(Cl)cc3)CC2)c1[N+](=O)[O-]`, the AC50 reads like this: (measured here: 8 h treatment) 553 nM; (measured here: 24 h treatment) 68.9 nM; (measured here: 48 h treatment) 78.8 nM.

With `C#CCCCC(=O)NCCOCCOCCOc1ccc(N(C(=O)CCl)C(C(=O)NCCc2ccccc2)c2cccs2)cc1Cl` (stereo not given), the AC50 is, setting by setting: (measured here: 8 h treatment) 2980 nM; (measured here: 24 h treatment) 588 nM; (measured here: 48 h treatment) 565 nM.

On to `COc1ccc(N(C(=O)CCl)C(C(=O)NCCc2ccccc2)c2cccs2)cc1Cl` (stereo not given), for which the AC50 reads like this: (measured here: 8 h treatment) 321 nM; (measured here: 24 h treatment) 39 nM; (measured here: 48 h treatment) 38.7 nM.

Take `CC(C)(C)OC(=O)NCCOCCOCCOc1ccc(N(C(=O)CCl)C(C(=O)NCCc2ccccc2)c2cccs2)cc1Cl` (stereo not given): the AC50 reads like this: (measured here: 8 h treatment) 454 nM; (measured here: 24 h treatment) 34.4 nM; (measured here: 48 h treatment) 41.5 nM.
